From PubChem BioAssay AID1360 (Sanford-Burnham Center for Chemical Genomics, 2008)
Calls of active or inactive are those of the source.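 The calls were made as follows: active = no phosphorylated c-Jun band on immunoblot of thapsigargin-stressed cells, like the unstressed control; inactive = a phosphorylated c-Jun band visible, like the stressed control.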

Test system: CSM14.1 cells, phospho-c-Jun Western blot, thapsigargin
Assay: inhibitors of thapsigargin-driven c-Jun phosphorylation, mechanism study for ER stress cell death inhibitors, CSM14.1 cells, Western blot (AID 1360)

`COc1ccc(C2CC(=O)C3=C(C2)Nc2ccccc2NC3c2cccc(C(F)(F)F)c2)cc1OC` (stereo unspecified) was tested. Which outcome did it give?
The outcome was “active”.

Which outcome does the source give for `COc1ccc(C2CC(=O)C3=C(C2)Nc2ccccc2NC3c2ccccc2C(F)(F)F)cc1OC` (stereo unspecified) here?
The outcome was “active”.

`CCOc1cccc(C2Nc3ccccc3NC3=C2C(=O)CC(c2ccc(OC)cc2)C3)c1` (stereo unspecified) was tested. Which outcome did it give?
Its outcome is “active”.

For `COc1ccc(C2CC(=O)C3=C(C2)Nc2ccccc2NC3c2cccc(Oc3ccccc3)c2)cc1OC` (stereo unspecified), which outcome is on record?
Its outcome is “active”.

How did the outcome turn out when `CC1(C)CC(=O)C2=C(C1)Nc1ccccc1NC2c1ccc(-c2ccccc2)cc1` (stereo unspecified) was run?
Its outcome is “active”.

For `CCOc1cc(C2Nc3ccccc3NC3=C2C(=O)CC(c2ccc(OC)cc2)C3)cc(Cl)c1O` (stereo unspecified), which outcome is on record?
The outcome was “active”.

How did the outcome turn out when `O=C1CC(c2ccccc2)CC2=C1C(c1c(F)cccc1Cl)Nc1ccccc1N2` (stereo unspecified) was run?
The outcome was “active”.

For `COc1ccc(C2CC(=O)C3=C(C2)Nc2ccccc2NC3c2cccc(Br)c2)cc1OC` (stereo unspecified), which outcome is on record?
The outcome was “active”.

For `COc1ccc(C2CC(=O)C3=C(C2)Nc2ccccc2NC3c2cc(C)ccc2C)cc1` (stereo unspecified), which outcome is on record?
The outcome was “active”.

For `CCCOc1ccc(C2Nc3ccccc3NC3=C2C(=O)CC(c2ccc(OC)c(OC)c2)C3)cc1` (stereo unspecified), which outcome is on record?
The outcome was “active”.

`CSc1ccc(C2Nc3ccccc3NC3=C2C(=O)CC(c2ccccc2)C3)cc1` (stereo unspecified) was tested. Which outcome did it give?
The outcome was “active”.
